According to patent EP4603105A1, “PHARMACEUTICAL COMPOSITION CONTAINING CYCLIC COMPOUND HAVING SELECTIVE KRAS INHIBITORY EFFECT AGAINST HRAS AND NRAS” (CHUGAI SEIYAKU KABUSHIKI KAISHA, priority 2022, dated 2024):
Where two headings read alike, the source gives them in different places. Where a SMILES comes first, the peptide text is derived from it. Bridges are numbered along the chain shown (N, C = ends). [ ]: non-standard residue; d: D form. The star is where a group is joined. hPhe(3,5-F2-4-CF3) = N[C@@H](CCc1cc(F)c(C(F)(F)F)c(F)c1)C(=O)O; hPhe(3-Cl-4-CF3) = N[C@@H](CCc1ccc(C(F)(F)F)c(Cl)c1)C(=O)O; NPrPhe(4-CF3) = CCCN[C@@H](Cc1ccc(C(F)(F)F)cc1)C(=O)O; NMeGly(cPent) = CN[C@H](C(=O)O)C1CCCC1; Pro(4,4-F2) = O=C(O)[C@@H]1CC(F)(F)CN1; αMeI = CC[C@H](C)[C@](C)(N)C(=O)O; NMeD = CN[C@@H](CC(=O)O)C(=O)O; NMeL = CN[C@@H](CC(C)C)C(=O)O; αMeS = C[C@](N)(CO)C(=O)O; Morpholide = C1CN(*)CCO1; NMeA = CN[C@@H](C)C(=O)O; Ac5c = NC1(C(=O)O)CCCC1; Aze = O=C(O)[C@@H]1CCN1; Ac4c = NC1(C(=O)O)CCC1; Sar = CNCC(=O)O

Columns and labels:
[1] = molecular target: GDP-bound NRAS wild-type protein (Homo sapiens, UniProt P01111); assay: Binding to NRAS by surface plasmon resonance (SPR), KD and KD ratio to KRAS
Chain of GDP-bound NRAS wild-type protein (P01111 whole entry): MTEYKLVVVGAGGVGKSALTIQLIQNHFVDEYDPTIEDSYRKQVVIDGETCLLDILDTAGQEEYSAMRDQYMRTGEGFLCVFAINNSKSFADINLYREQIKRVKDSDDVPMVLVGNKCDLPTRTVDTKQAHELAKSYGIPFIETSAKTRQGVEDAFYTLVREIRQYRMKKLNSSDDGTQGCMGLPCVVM
In short: (§1)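 Single-cycle kinetics on GDP-loaded biotin-Avi RAS captured to ~100–300 RU; 75 s ascending injections, 100 µL/min, 30°C. HBS pH 7.4 + 10 mM MgCl2/10 µM GDP/4% DMSO. 1:1 fit, KD.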

HRAS wild-type protein = HRAS wild-type protein (Homo sapiens, UniProt P01112); assay: Binding to HRAS by surface plasmon resonance (SPR), KD and KD ratio to KRAS
Chain of HRAS wild-type protein (P01112 whole entry): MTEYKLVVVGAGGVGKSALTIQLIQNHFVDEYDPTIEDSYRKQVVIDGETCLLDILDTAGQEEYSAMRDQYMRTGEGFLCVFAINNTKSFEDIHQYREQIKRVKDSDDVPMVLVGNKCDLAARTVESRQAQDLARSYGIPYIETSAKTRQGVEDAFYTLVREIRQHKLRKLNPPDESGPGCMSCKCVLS
In short: as §1

[2] = test system: human lung cancer strain NCI-H441; format: cell-based
In short: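 Proliferation was scored by […] measured after the reagent was added to cultures kept at 37°C in 5% carbon dioxide.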

[3] = ratio of the KD value with respect to GDP-bound NRAS wild-type protein to the KD value with respect to KRAS
[4] = ratio of the KD value with respect to HRAS wild-type protein to the KD value with respect to KRAS
[5] = ratio of KD for GDP-bound NRAS wild-type protein to KD for KRAS
[6] = ratio of KD for HRAS wild-type protein to KD for KRAS

| IC50 [2] | SMILES | NRAS /KRAS [1, 3] | HRAS /KRAS (HRAS wild-type protein; [4]) | NRAS /KRAS [1, 5] | HRAS /KRAS (HRAS wild-type protein; [6]) | IC50 ([2]; NCI-H441 cells, 4 days, CellTiter-Glo, read-out: NCl-H441 IC50) | NRAS /KRAS ([1]; ratio of KD value for GDP-bound NRAS wild-type protein to KD value for KRAS (SPR)) | HRAS /KRAS (HRAS wild-type protein; ratio of KD value for HRAS wild-type protein to KD value for KRAS (SPR)) |
| --- | --- | --- | --- | --- | --- | --- | --- | --- |
| 2.6 nM | CCCN1C(=O)[C@@H]2CCN2C(=O)[C@H](C)N(C)C(=O)[C@H]([C@@H](C)CC)NC(=O)[C@H](CC(C)C)N(C)C(=O)C[C@@H](C(=O)N(C)C)N(C)C(=O)[C@H](C2CCCC2)N(C)C(=O)C2(CCC2)NC(=O)[C@@H]2CCCN2C(=O)[C@H](CCc2ccc(C(F)(F)F)c(Cl)c2)NC(=O)CN(C)C(=O)[C@@H]1Cc1ccc(C(F)(F)F)cc1 [PP0435] ([NMeL]I[NMeA][Aze][NPrPhe(4-CF3)][Sar][hPhe(3-Cl-4-CF3)]P[Ac4c][NMeGly(cPent)][NMeD]-NMe2; lactam N-11) | C (A compound having a KD ratio of 0.1 or more and less than 3 is denoted as C) | C (A compound having a KD ratio of 0.1 or more and less than 3 is denoted as C) | – | – | – | – | – |
| 399 nM | CC[C@H](C)[C@@H]1NC(=O)[C@H](CC(C)C)N(C)C(=O)C[C@@H](C(=O)N2CCOCC2)N(C)C(=O)[C@H](C2CCCC2)N(C)C(=O)C2(CC2)NC(=O)[C@@H]2CCCN2C(=O)[C@H](CCc2cc(F)c(C(F)(F)F)c(F)c2)NC(=O)CN(C)C(=O)[C@H](Cc2ccc(C(F)(F)F)cc2)N2CCCCC[C@@H](C2=O)N(C)C(=O)CN(C)C1=O [PP0496] | B (a compound having 3 or more and less than 10 is denoted as B) | B (a compound having 3 or more and less than 10 is denoted as B) | – | – | – | – | – |
| 5.1 nM | CCO[C@@H]1C[C@H]2C(=O)NC3(CCC3)C(=O)N(C)[C@@H](C3CCCC3)C(=O)N(C)[C@H](C(=O)N(C)CC)CC(=O)N(C)[C@@H](CC(C)C)C(=O)N[C@@H]([C@@H](C)CC)C(=O)N(C)CC(=O)N(C)[C@H]3C/C=C\CCN(C3=O)[C@@H](Cc3ccc(C(F)(F)F)cc3)C(=O)N(C)CC(=O)N[C@@H](CCc3ccc(C(F)(F)F)c(OC)c3)C(=O)N2C1 [PP2846] | – | – | AA (a compound having 20 or more is denoted as AA) | A (a compound having 10 or more and less than 20 is denoted as A) | – | – | – |
| 11.1 nM | CCCN1C(=O)[C@@H]2CCN2C(=O)[C@H](C)N(C)C(=O)[C@H]([C@@H](C)CC)NC(=O)[C@H](CC(C)C)N(C)C(=O)C[C@@H](C(=O)N(C)C)NC(=O)[C@H](C2CCCC2)N(C)C(=O)C2(CCCC2)NC(=O)[C@@H]2CC(F)(F)CN2C(=O)[C@H](CCc2ccc(C(F)(F)F)c(Cl)c2)NC(=O)CN(C)C(=O)[C@@H]1Cc1ccc(C(F)(F)F)cc1 [PP0381] ([NMeL]I[NMeA][Aze][NPrPhe(4-CF3)][Sar][hPhe(3-Cl-4-CF3)][Pro(4,4-F2)][Ac5c][NMeGly(cPent)]D-NMe2; lactam N-11) | – | – | C (A compound having a KD ratio of 0.1 or more and less than 3 is denoted as C) | B (a compound having 3 or more and less than 10 is denoted as B) | – | – | – |
| – | CCC[C@H]1C(=O)N[C@@H]([C@@H](C)CC)C(=O)N(C)CC(=O)N(C)[C@H]2C/C=C\CCN(C2=O)[C@@H](Cc2ccc(C(F)(F)F)cc2)C(=O)N(C)CC(=O)N[C@@H](CCc2cc(Cl)c3c(ccn3C)c2)C(=O)N2C[C@H](OCC)C[C@H]2C(=O)NC2(CC(C)(C)C2)C(=O)N(C)[C@@H](C(CC)CC)C(=O)N(C)[C@H](C(=O)N(C)C)CC(=O)N1C [PP2896] | – | – | A (a compound having 10 or more and less than 20 is denoted as A) | A (a compound having 10 or more and less than 20 is denoted as A) | 79.3 nM | – | – |
| 6.6 nM | CCO[C@@H]1C[C@H]2C(=O)NC3(CC(C)(C)C3)C(=O)N(C)[C@@H](C3CCCC3)C(=O)N(C)[C@H](C(=O)N(C)C)CC(=O)N(C)[C@@H](C3CCC3)C(=O)N[C@@H]([C@@H](C)CC)C(=O)N(C)CC(=O)N(C)[C@H]3C/C=C\CCN(C3=O)[C@@H](Cc3ccc(C(F)(F)F)cc3)C(=O)N(C)CC(=O)N[C@@H](CCc3ccc(C(F)(F)F)c(OC)c3)C(=O)N2C1 [PP1987] | A (a compound having 10 or more and less than 20 is denoted as A) | A (a compound having 10 or more and less than 20 is denoted as A) | – | – | – | – | – |
| 113 nM | CCO[C@@H]1C[C@H]2C(=O)NC3(CCC3)C(=O)N(C)[C@@H](C3CCCC3)C(=O)N(C)[C@H](C(=O)N3CCOCC3)CC(=O)N(C)[C@@H](Cc3ccccc3F)C(=O)N[C@@H]([C@@H](C)CC)C(=O)N(C)CC(=O)N(C)[C@H]3CCCCCN(C3=O)[C@@H](Cc3ccc(C(F)(F)F)cc3)C(=O)N(C)CC(=O)N[C@@H](CCc3cc(F)c(C(F)(F)F)c(F)c3)C(=O)N2C1 [PP0926] | – | – | B (a compound having 3 or more and less than 10 is denoted as B) | B (a compound having 3 or more and less than 10 is denoted as B) | – | – | – |
| 14.3 nM | CCO[C@@H]1C[C@H]2C(=O)NC3(CCC3)C(=O)N(C)[C@@H](C3CCCC3)C(=O)N(C)[C@H](C(=O)N(C)C)CC(=O)N(C)[C@@H](CC)C(=O)N[C@@H]([C@@H](C)CC)C(=O)N(C)CC(=O)N(C)[C@H]3CCCCN(C3=O)[C@@H](Cc3ccc(C(F)(F)F)cc3)C(=O)N(C)CC(=O)N[C@@H](CCc3c(F)c(F)c(C(F)(F)F)c(F)c3F)C(=O)N2C1 [PP0886] | – | – | C (A compound having a KD ratio of 0.1 or more and less than 3 is denoted as C) | B (a compound having 3 or more and less than 10 is denoted as B) | – | – | – |
| 2.7 nM | CCCN1C(=O)CN(C)C(=O)CN(C)C(=O)[C@H]([C@@H](C)CC)NC(=O)[C@H](CC(C)C)N(C)C(=O)C[C@@H](C(=O)N2CCOCC2)N(C)C(=O)[C@H](C2CCCC2)N(C)C(=O)C2(CCCC2)NC(=O)[C@@H]2CC(F)(F)CN2C(=O)[C@H](CCc2ccc(C(F)(F)F)c(Cl)c2)NC(=O)CN(C)C(=O)[C@@H]1Cc1ccc(C(F)(F)F)cc1 [PP0195] ([NMeL]I[Sar][Sar][NPrPhe(4-CF3)][Sar][hPhe(3-Cl-4-CF3)][Pro(4,4-F2)][Ac5c][NMeGly(cPent)][NMeD]-Morpholide; lactam N-11) | – | – | B (a compound having 3 or more and less than 10 is denoted as B) | C (A compound having a KD ratio of 0.1 or more and less than 3 is denoted as C) | – | – | – |
| 130 nM | CCCN1C(=O)CN(C)C(=O)CN(C)C(=O)[C@H]([C@@H](C)CC)NC(=O)[C@H](CC(C)C)N(C)C(=O)C[C@@H](C(=O)N(C)C)N(C)C(=O)[C@H](C2CCCC2)N(C)C(=O)[C@](C)([C@@H](C)CC)NC(=O)[C@@H]2CCCN2C(=O)[C@H](CCc2cc(F)c(C(F)(F)F)c(F)c2)NC(=O)CN(C)C(=O)[C@@H]1Cc1ccc(C(F)(F)F)cc1 [PP0736] ([NMeL]I[Sar][Sar][NPrPhe(4-CF3)][Sar][hPhe(3,5-F2-4-CF3)]P[αMeI][NMeGly(cPent)][NMeD]-NMe2; lactam N-11) | B (a compound having 3 or more and less than 10 is denoted as B) | C (A compound having a KD ratio of 0.1 or more and less than 3 is denoted as C) | – | – | – | – | – |
| 1.6 nM | CCO[C@@H]1C[C@H]2C(=O)NC3(CC(C)(C)C3)C(=O)N(C)[C@@H](C3CCCC3)C(=O)N(C)[C@H](C(=O)N(C)CC)CC(=O)N(C)[C@@H](CC(F)F)C(=O)N[C@@H]([C@@H](C)CC)C(=O)N(C)CC(=O)N(C)[C@H]3C/C=C\CCN(C3=O)[C@@H](Cc3ccc(C(F)(F)F)cc3)C(=O)N(C)CC(=O)N[C@@H](CCc3ccc(C(F)(F)F)c(OC)c3)C(=O)N2C1 [PP1655] | – | – | – | – | – | A (a compound having 10 or more and less than 20 is denoted as A) | A (a compound having 10 or more and less than 20 is denoted as A) |
| 23.6 nM | CCO[C@@H]1C[C@H]2C(=O)NC3(CCC3)C(=O)N(C)[C@@H](C3CCCC3)C(=O)N(C)[C@H](C(=O)N(C)C)CC(=O)N(C)[C@@H](CC)C(=O)N[C@@H]([C@@H](C)CC)C(=O)N(C)CC(=O)N(C)[C@H]3C/C=C\CCN(C3=O)[C@@H](Cc3ccc(C(F)(F)F)cc3)C(=O)N(C)CC(=O)N[C@@H](CCc3cc(F)c(C(F)(F)F)c(F)c3)C(=O)N2C1 [PP0824] | – | – | A (a compound having 10 or more and less than 20 is denoted as A) | A (a compound having 10 or more and less than 20 is denoted as A) | – | – | – |
| 37.2 nM | CCO[C@@H]1C[C@H]2C(=O)NC3(CCCC3)C(=O)N(C)[C@@H](C3CCCC3)C(=O)N(C)[C@H](C(=O)N(C)C)CC(=O)N(C)[C@@H](CC(C)C)C(=O)N[C@@H]([C@@H](C)CC)C(=O)N(C)CC(=O)N(C)[C@H]3CCCCCN(C3=O)[C@@H](Cc3ccc(C(F)(F)F)cc3)C(=O)N(C)CC(=O)N[C@@H](CCc3cc(F)c(C(F)(F)F)c(F)c3)C(=O)N2C1 [PP0468] | B (a compound having 3 or more and less than 10 is denoted as B) | B (a compound having 3 or more and less than 10 is denoted as B) | – | – | – | – | – |
| 51.5 nM | CCCN1C(=O)CN(C)C(=O)CN(C)C(=O)[C@H]([C@@H](C)CC)NC(=O)[C@H](CC(C)C)N(C)C(=O)C[C@@H](C(=O)N(C)C)N(C)C(=O)[C@H](C2CCCC2)N(C)C(=O)[C@](C)(COC)NC(=O)[C@@H]2CCCN2C(=O)[C@H](CCc2cc(F)c(C(F)(F)F)c(F)c2)NC(=O)CN(C)C(=O)[C@@H]1Cc1ccc(C(F)(F)F)cc1 [PP0741] ([NMeL]I[Sar][Sar][NPrPhe(4-CF3)][Sar][hPhe(3,5-F2-4-CF3)]P[αMeS](Me)[NMeGly(cPent)][NMeD]-NMe2; lactam N-11) | B (a compound having 3 or more and less than 10 is denoted as B) | B (a compound having 3 or more and less than 10 is denoted as B) | – | – | – | – | – |
